Molecules are shown by their SMILES. Bounds are passed on as bounds.

28 compounds from patent EP2970215B1, “PYRROLIDINE DERIVATIVES, PHARMACEUTICAL COMPOSITIONS CONTAINING THEM, AND THEIR USE IN THERAPY” (AbbVie Deutschland GmbH & Co. KG, priority 2013, dated 2014) can be followed below.

For this experiment, the target named is T1, human GlyT1c transporter (Homo sapiens, UniProt P48067).
T1 construct: expressed in transfected cells; host or cells: CHO cells (recombinant; line hGlyT1c_5_CHO is named for the uptake assay)
T1 sequence (P48067 1-706): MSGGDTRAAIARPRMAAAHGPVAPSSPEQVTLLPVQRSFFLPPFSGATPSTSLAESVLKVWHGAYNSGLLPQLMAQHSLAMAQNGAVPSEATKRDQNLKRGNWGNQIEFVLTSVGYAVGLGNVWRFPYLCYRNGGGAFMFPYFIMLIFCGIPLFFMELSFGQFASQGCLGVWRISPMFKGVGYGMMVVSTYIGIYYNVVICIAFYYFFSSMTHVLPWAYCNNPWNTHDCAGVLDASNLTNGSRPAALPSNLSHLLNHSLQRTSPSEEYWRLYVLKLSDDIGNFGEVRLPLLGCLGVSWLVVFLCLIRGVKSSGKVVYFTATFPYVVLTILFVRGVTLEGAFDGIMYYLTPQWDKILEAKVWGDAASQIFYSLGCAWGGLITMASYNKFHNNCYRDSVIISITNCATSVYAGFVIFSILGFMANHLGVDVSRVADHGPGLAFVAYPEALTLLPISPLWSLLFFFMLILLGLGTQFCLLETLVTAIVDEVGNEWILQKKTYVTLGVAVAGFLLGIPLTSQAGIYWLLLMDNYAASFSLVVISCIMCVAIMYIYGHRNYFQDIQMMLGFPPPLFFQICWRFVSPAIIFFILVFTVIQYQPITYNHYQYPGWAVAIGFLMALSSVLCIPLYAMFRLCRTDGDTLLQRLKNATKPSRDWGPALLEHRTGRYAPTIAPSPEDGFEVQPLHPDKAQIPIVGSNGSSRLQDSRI
In words: Radioligand binding assay using recombinant CHO cell membranes expressing human GlyT1. The settings on record: radioligand binding to human GlyT1c transporter-expressing membranes. An excerpt:
2. Radioligand binding assays using recombinant CHO cell membranes expressing human GlyT1: […]
Regarding `Cn1cnc(S(=O)(=O)N2C[C@@H](C(=O)c3cccc(C(F)(F)F)c3)[C@H](c3ccc(F)cc3)C2)c1` (relative stereo) [Example 302, {trans-4-(4-fluorophenyl)-1-[(1-methyl-1H-imidazol-4-yl)sulfonyl]pyrrolidin-3-yl}[3-(trifluoromethyl)phenyl]methanone], the Ki was at most 100 nM.
Next, `Cn1cnc(S(=O)(=O)N2C[C@@H](COc3ccccc3)[C@H](c3ccc(F)cc3)C2)c1` (relative stereo) [Example 245, 4-{[trans-3-(4-fluorophenyl)-4-(phenoxymethyl)pyrrolidin-1-yl]sulfonyl}-1-methyl-1H-imidazole]: at most 100 nM.
With `CCC(C)(C)CN[C@H]1CN(S(=O)(=O)c2cn(C)cn2)C[C@@H]1c1ccccc1` [Example 450, (3R,4S)-N-(2,2-dimethylbutyl)-1-[(1-methyl-1H-imidazol-4-yl)sulfonyl]-4-phenylpyrrolidin-3-amine] the figure was at most 1000 nM; with `CCCCC(CC)CN[C@H]1CN(S(=O)(=O)c2cn(C)cn2)C[C@@H]1c1ccccc1` (stereo partly drawn) [Example 433, (3R,4S)-N-(2-ethylhexyl)-1-[(1-methyl-1H-imidazol-4-yl)sulfonyl]-4-phenylpyrrolidin-3-amine], at most 100 nM; with `Cn1cnc(S(=O)(=O)N2C[C@H](NCc3ccnc(Cl)c3F)[C@@H](c3ccccc3)C2)c1` [Example 567, (3R,4S)-N-[(2-chloro-3-fluoropyridin-4-yl)methyl]-1-[(1-methyl-1H-imidazol-4-yl)sulfonyl]-4-phenylpyrrolidin-3-amine], at most 1000 nM.
With `Cn1cnc(S(=O)(=O)N2C[C@@H](Nc3cccc(Cl)c3)[C@H](c3ccc(F)cc3)C2)c1` [Example 325, (3S,4R)-N-(3-chlorophenyl)-4-(4-fluorophenyl)-1-[(1-methyl-1H-imidazol-4-yl)sulfonyl]pyrrolidin-3-amine] the figure was at most 1000 nM; with `Cn1cnc(S(=O)(=O)N2C[C@H](Nc3ncnc4[nH]ccc34)[C@@H](c3ccccc3)C2)c1` [Example 406, N-{(3R,4S)-1-[(1-methyl-1H-imidazol-4-yl)sulfonyl]-4-phenylpyrrolidin-3-yl}-7H-pyrrolo[2,3-d]pyrimidin-4-amine], at most 10000 nM; with `Cn1cnc(S(=O)(=O)N2C[C@H](NCC3(C)CCCCC3)[C@@H](c3ccccc3)C2)c1` [Example 467, (3R,4S)-N-[(1-methylcyclohexyl)methyl]-1-[(1-methyl-1H-imidazol-4-yl)sulfonyl]-4-phenylpyrrolidin-3-amine], at most 1000 nM.
Take `Cn1cnc(S(=O)(=O)N2CC(c3ccc(F)cc3)C(c3ccc(Cl)cc3)C2)c1` (stereo not shown) [Example 340, 4-{[3-(4-chlorophenyl)-4-(4-fluorophenyl)pyrrolidin-1-yl]sulfonyl}-1-methyl-1H-imidazole]: the Ki was at most 1000 nM.
With `CCS(=O)(=O)N1C[C@@H](Nc2cccc(C#N)c2)[C@H](c2ccccc2)C1` (relative stereo) [Example 131, 3-{[trans-1-(ethylsulfonyl)-4-phenylpyrrolidin-3-yl]amino}benzonitrile] the figure was over 10000 nM.
Next, `CCCC(C)CN[C@H]1CN(S(=O)(=O)c2cn(C)cn2)C[C@@H]1c1ccccc1` (stereo partly drawn) [Example 446, (3R,4S)-1-[(1-methyl-1H-imidazol-4-yl)sulfonyl]-N-(2-methylpentyl)-4-phenylpyrrolidin-3-amine]: at most 100 nM; `Cn1cnc(S(=O)(=O)N2C[C@H](Nc3ccc(Cl)c(OC(F)(F)F)c3)[C@@H](c3ccc(F)cc3)C2)c1` [Example 585, (3R,4S)-N-[4-chloro-3-(trifluoromethoxy)phenyl]-4-(4-fluorophenyl)-1-[(1-methyl-1H-imidazol-4-yl)sulfonyl]pyrrolidin-3-amine]: at most 100 nM.
With `Cn1cnc(S(=O)(=O)N2C[C@@H](COc3cccc(Cl)c3)[C@H](c3ccc(F)cc3)C2)c1` (relative stereo) [Example 248, 4-{[trans-3-[(3-chlorophenoxy)methyl]-4-(4-fluorophenyl)pyrrolidin-1-yl]sulfonyl}-1-methyl-1H-imidazole] the figure was at most 1000 nM; with `COc1nccc(N[C@H]2CN(S(=O)(=O)c3cn(C)cn3)C[C@@H]2c2ccccc2)n1` [Example 532, 2-methoxy-N-{(3R,4S)-1-[(1-methyl-1H-imidazol-4-yl)sulfonyl]-4-phenylpyrrolidin-3-yl}pyrimidin-4-amine], at most 10000 nM.
Regarding `Cn1cnc(S(=O)(=O)N2C[C@@H](Nc3cccnc3)[C@H](c3ccccc3)C2)c1` (relative stereo) [Example 208, N-{trans-1-[(1-methyl-1H-imidazol-4-yl)sulfonyl]-4-phenylpyrrolidin-3-yl}pyridin-3-amine], the Ki was at most 10000 nM.
With `Cn1cnc(S(=O)(=O)N2CC(Nc3cccnn3)C(c3ccc(F)cc3)C2)c1` (stereo not shown) [Example 350, N-{4-(4-fluorophenyl)-1-[(1-methyl-1H-imidazol-4-yl)sulfonyl]pyrrolidin-3-yl}pyridazin-3-amine] the figure was over 10000 nM; with `COCCOCCN[C@H]1CN(S(=O)(=O)c2cn(C)cn2)C[C@@H]1c1ccccc1` [Example 666, (3R,4S)-N-[2-(2-methoxyethoxy)ethyl]-1-[(1-methyl-1H-imidazol-4-yl)sulfonyl]-4-phenylpyrrolidin-3-amine], at most 10000 nM.
Next, `Cn1cnc(S(=O)(=O)N2C[C@H](NCc3cc(Cl)sc3Cl)[C@@H](c3ccccc3)C2)c1` [Example 570, (3R,4S)-N-[(2,5-dichlorothiophen-3-yl)methyl]-1-[(1-methyl-1H-imidazol-4-yl)sulfonyl]-4-phenylpyrrolidin-3-amine]: at most 10 nM.
Next, `CCOCCCNC[C@@H]1CN(S(=O)(=O)c2cn(C)cn2)C[C@H]1c1ccc(F)cc1` (relative stereo) [Example 592, 3-ethoxy-N-({trans-4-(4-fluorophenyl)-1-[(1-methyl-1H-imidazol-4-yl)sulfonyl]pyrrolidin-3-yl}methyl)propan-1-amine]: at most 10000 nM.
For the compound `Cc1cc(N[C@H]2CN(S(=O)(=O)c3cn(C)cn3)C[C@@H]2c2ccccc2)ccc1Cl` [Example 669, (3R,4S)-N-(4-chloro-3-methylphenyl)-1-[(1-methyl-1H-imidazol-4-yl)sulfonyl]-4-phenylpyrrolidin-3-amine], the Ki was at most 100 nM.
With `Cc1cc(N[C@H]2CN(S(=O)(=O)c3cn(C)cn3)C[C@@H]2c2ccccc2)ncn1` [Example 637, 6-methyl-N-{(3R,4S)-1-[(1-methyl-1H-imidazol-4-yl)sulfonyl]-4-phenylpyrrolidin-3-yl}pyrimidin-4-amine] the figure was at most 10000 nM; with `O=c1[nH]c2ccc(S(=O)(=O)N3CC(Nc4ccc(F)c(F)c4)C(c4ccccc4)C3)cc2[nH]1` (stereo not shown) [Example 506, 5-({3-[(3,4-difluorophenyl)amino]-4-phenylpyrrolidin-1-yl}sulfonyl)-1,3-dihydro-2H-benzimidazol-2-one], at most 10000 nM.
Next, `Cn1cnc(S(=O)(=O)N2C[C@@H](CNc3cccc(C(F)(F)F)c3)[C@H](c3ccc(F)cc3)C2)c1` (relative stereo) [Example 335, N-({Trans-4-(4-fluorophenyl)-1-[(1-methyl-1H-imidazol-4-yl)sulfonyl]pyrrolidin-3-yl}methyl)-3-(trifluoromethyl)aniline]: at most 1000 nM; `Cn1cnc(S(=O)(=O)N2C[C@@H](C(=O)Nc3ccc(F)cc3)[C@H](c3ccc(F)cc3)C2)c1` (relative stereo) [Example 358, Trans-N,4-bis(4-fluorophenyl)-1-[(1-methyl-1H-imidazol-4-yl)sulfonyl]pyrrolidine-3-carboxamide]: at most 100 nM; `Cn1cnc(S(=O)(=O)N2C[C@@H](Nc3cc(C(F)(F)F)ncn3)[C@H](c3ncccc3F)C2)c1` (relative stereo) [Example 770, N-{Trans-4-(3-fluoropyridin-2-yl)-1-[(1-methyl-1H-imidazol-4-yl)sulfonyl]pyrrolidin-3-yl}-6-(trifluoromethyl)pyrimidin-4-amine]: at most 1000 nM.
With `Cn1cnc(S(=O)(=O)N2C[C@@H](COc3cc(C(F)(F)F)ccn3)[C@H](c3ccc(F)cc3)C2)c1` (relative stereo) [Example 346, 2-({Trans-4-(4-fluorophenyl)-1-[(1-methyl-1H-imidazol-4-yl)sulfonyl]pyrrolidin-3-yl}methoxy)-4-(trifluoromethyl)pyridine] the figure was at most 1000 nM; with `Cn1cnc(S(=O)(=O)N2C[C@@H](NC(=O)c3ccc(F)cc3Cl)[C@H](c3ccccc3)C2)c1` (relative stereo) [Example 27, 2-chloro-4-fluoro-N-{trans-1-[(1-methyl-1H-imidazol-4-yl)sulfonyl]-4-phenylpyrrolidin-3-yl}benzamide], at most 1000 nM; with `Cn1cnc(S(=O)(=O)N2C[C@@H](Nc3cccnc3)[C@H](c3ccc(F)cc3)C2)c1` (relative stereo) [Example 179, N-{trans-4-(4-fluorophenyl)-1-[(1-methyl-1H-imidazol-4-yl)sulfonyl]pyrrolidin-3-yl}pyridin-3-amine], at most 10000 nM.
